Series [1] concerns HCMV (strain AD169, ATCC VR-538). Briefly: Plaque Reduction Assay (PRA). The class given is cell-based, human cytomegalovirus (HCMV). The conditions noted are these: Hs-68 cells, approximately 50 PFU HCMV AD169, 8 days at 37°. How it is done:
B. Plaque Reduction Assay (PRA)
Hs-68 cells (ATCC #CRL 1635) were seeded in 12-well plates at 83,000 cells/well in 1 mL of DMEM medium (Gibco Canada Inc.) supplemented with 10% fetal bovine serum (FBS, Gibco Canada Inc.). The plates were incubated for 3 days at 37° to allow the cells to reach 80-90% confluency prior to the assay.
The medium was removed from the cells by aspiration. The cells were then infected with approximately 50 PFU of HCMV (strain AD169, ATCC VR-538) in DMEM medium supplemented with 5% inactivated FBS (assay medium). (DMEM medium is commercially available and has been described by R. Dulbecco et al., Virology 1959, 8, 396.) The virus was allowed to adsorb to cells for 2 h at 37°. Following viral adsorption, the medium was removed from the wells by aspiration. The cells were then incubated with or without 1 mL of appropriate concentrations of test reagent in assay medium. Occasionally, test compounds were added 24 h post-infection. After 4 days of incubation at 37°, the medium was exchanged with fresh medium containing test compound and 4 days later the cells were fixed with 1% aqueous formaldehyde and stained with a 2% violet solution in 20% ethanol in water. Microscopic plaques were counted using a stereomicroscope. Drug effects were calculated as a percent reduction in the number of plaques in the presence of each drug concentration compared to the number observed in the absence of drug. Ganciclovir was used as a positive control in all experiments.
(Plaques are areas of infected cells; plaque reduction assays count them against a control.)

The target in a further series is HCMV NO protease (Human cytomegalovirus, UniProt P16753). Briefly: HCMV NO Protease Assay (inhibition of cleavage of internally quenched fluorogenic peptide substrate). The series is classed as biochemical. Particulars: for IC50: 100 nM HCMV NO protease, 5 μM substrate, 2.5 h at 30°, pH 8. How it is done:
This particular assay determines the ability of a test compound to inhibit the activity of HCMV protease. More specifically, in the assay described herein, the inhibitory activity of the test compound is evaluated on the basis of its ability to interfere with the HCMV No protease cleavage of a fluorogenic peptide substrate which in turn is based on the maturation cleavage site of the enzyme.
A. HCMV NO Protease Assay
Material & Methods: Fluorescence measurements were recorded on a Perkin-Elmer LS-50B spectrofluorimeter equipped with a plate reader accessory. UV measurements were recorded on a Thermomax® microplate reader from Molecular Devices Corporation, Menlo Park, Calif., USA.
HCMV NO protease was assayed with an internally quenched fluorogenic substrate based on the maturation cleavage site (Abz-[…](3-NO2)R--OH, kcat /KM =260 M^-1 s^-1). The fluorescence increase upon cleavage of the Ala-Ser amide bond was monitored using excitation λ=312 nm (slit 2.5 nm) and emission λ=415 nm (slit 5 nm). A protocol adaptable to a 96-well plate format was designed for the determination of IC50 values of inhibitors. […] After this period, enzymatic hydrolysis of the fluorogenic substrate in the absence of inhibitor led to about a 30% conversion. Quenching was not required before fluorescence measurement since the total scanning time by the plate reader accessory was brief relative to the duration of the reaction. The aqueous incubation buffer contained 50 mM tris(hydroxymethyl)aminomethane.HCl pH 8, 0.5M Na2 SO4, 50 mM NaCl, 0.1 mM EDTA, 1 mM tris(2-carboxyethyl)phosphine.HCl, 3% v/v DMSO and 0.05% w/v casein. The final concentrations of HCMV NO protease (expressed in terms of total monomer concentration) and substrate were 100 nM and 5 μM respectively. IC50 values were obtained through fitting of the inhibition curve to a competitive inhibition model using SAS NLIN procedure. The mode of inhibition was determined by measurements of the initial rates (in cuvettes) at various substrate concentrations in the buffer as described above. The IC50 values listed in the following tables the IC50 were obtained according to this assay.

A short description of series [2]: Cytotoxic effects, tetrazolium salt (MTT) metabolic assay. The series is classed as cell-based. Particulars: read-out: TC50 (the source's name). How it is done:
In conjunction with the appropriate starting materials and intermediates, the procedures of examples 1 to 11 can be used to prepare other compounds of formula 1. Examples of compounds thus prepared are listed in the following Tables I, II and III together with mass spectrum data for the compounds, and results from the assays A and B of example 12. Cytotoxic effects noted as TC50 in the following tables were determined according to the tetrazolium salt (MTT) metabolic assay, F. Denizot and F. Lang, J. Immun. Meth., 1986, 89, 271.

[3] abbreviates: Human betaherpesvirus 5, AD169, Hs68, 192 h, read-out: EC50.

Structures are written as SMILES. Read-outs that look alike come from different tables or passages of the source. Non-standard residues stand in square brackets, D forms with d. Residues, ends and D or L forms follow the SMILES beside them. Tyr(3-NO2) = N[C@@H](Cc1ccc(O)c([N+](=O)[O-])c1)C(=O)O; 2Abz = Nc1ccccc1C(=O)O

HCMV NO protease, sequence (P16753 1-256): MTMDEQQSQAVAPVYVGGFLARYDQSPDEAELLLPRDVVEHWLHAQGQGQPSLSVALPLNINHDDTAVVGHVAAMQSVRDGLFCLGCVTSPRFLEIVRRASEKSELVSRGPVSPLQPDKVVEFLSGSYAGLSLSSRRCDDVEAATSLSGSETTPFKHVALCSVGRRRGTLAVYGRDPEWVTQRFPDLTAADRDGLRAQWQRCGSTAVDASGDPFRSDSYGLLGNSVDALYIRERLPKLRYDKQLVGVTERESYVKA

The EC50 is the concentration needed to bring the measured effect to its halfway point. One may read the IC50 as the midpoint of a concentration-inhibition curve. A low value points to higher potency. Turning to `CN(Cc1ccc(S(=O)(=O)C(F)(F)F)cc1)C(=O)N1C(=O)C[C@@H]1Cc1ccccc1` [Entry 139], in series [1] (setting [3]), the EC50 was over 250 µM. Moreover, it took 4.3 µM to reach half-maximal inhibition on HCMV NO protease (IC50). For the same compound, the CC50 in series [2] is over 250 µM.
Turning to `O=C1C[C@H](Cc2ccccc2)N1C(=O)N1CCc2ccccc2C1` [Entry 302], the IC50 at HCMV NO protease was found to be 36 µM. This lies in the double-digit micromolar range.
Take `O=C1C[C@H](Cc2ccccc2)N1C(=O)NCc1ccncc1` [Entry 136, 4(S)-Benzyl-2-oxoazetidine-1-carboxylic acid (4-pyridinylmethyl) amide]: the EC50 in series [1] (setting [3]) is over 250 µM. Besides, the midpoint of inhibition at HCMV NO protease, the IC50, lay at 13 µM. The CC50 in series [2] is over 250 µM.
In the case of `CCC(NC(=O)N1C(=O)C[C@@H]1Cc1ccccc1)c1ccncc1` (stereo partly drawn) [Entry 108], the IC50 against HCMV NO protease turned out to be 28 µM.
On to `CN(Cc1ccc([N+](=O)[O-])cc1)C(=O)N1C(=O)C[C@@H]1Cc1nnn(C)n1` [Entry 224], for which, in series [1] (setting [3]), the EC50 was determined as 100 µM. The same compound returned an IC50 at HCMV NO protease of 2.7 µM. For the same compound, in series [2], the CC50 is over 133 µM.
Take `CC[C@@H](NC(=O)N1C(=O)C[C@@H]1Cc1ccccc1)c1ccccc1` [Entry 118]: the EC50 in series [1] (setting [3]) came to 180 µM. The compound further returned an IC50 against HCMV NO protease of 2.6 µM. Also, the CC50 in series [2] was over 250 µM.
The corresponding values for `CC(C)c1ccc(CN(C)C(=O)N2C(=O)C[C@@H]2Cc2ccccc2)cc1` [Entry 134] are 150 µM, 6.4 µM and 200 µM.
On to `CN(Cc1ccc([N+](=O)[O-])cc1)C(=O)N1C(=O)C[C@@H]1Cc1ccco1` [Entry 229], for which, in series [1] (setting [3]), the concentration for a half-maximal effect (EC50) was found to be 143 µM. In addition, the half-inhibitory concentration (IC50) against HCMV NO protease stood at 3.1 µM. In addition, in series [2], the CC50 was over 261 µM.
The corresponding values for `C[C@@H]1C(=O)N(C(=O)N(C)Cc2ccccc2)[C@H]1Cc1ccccc1` [Entry 208] are 150 µM, 4.2 µM and over 250 µM.
For `C[C@@H]1C(=O)N(C(=O)Nc2ccccc2)[C@H]1Cc1ccccc1` [Entry 203] the same measures were over 250 µM, 0.81 µM and over 250 µM.
As to `CN(Cc1ccc(C(F)(F)F)cc1)C(=O)N1C(=O)C[C@@H]1Cc1ccccc1` [Entry 135, 4(S)-Benzyl-2-oxoazetidine-1-carboxylic acid N-methyl-N-{{4-(trifluoromethyl)phenyl}methyl}amide], in series [1] (setting [3]), the concentration for a half-maximal effect (EC50) came to 190 µM. Further, the CC50 in series [2] was over 250 µM.
As to `CC[C@H]1CC(=O)N1C(=O)N[C@H](CC)c1ccccc1` [Entry 214], in series [1] (setting [3]), the EC50 was 180 µM. On HCMV NO protease, this compound displayed an IC50 of 7.6 µM. For the same compound, the CC50 in series [2] was over 250 µM.
Take `CN(Cc1ccc(C(F)(F)F)cc1)C(=O)N1C(=O)C[C@@H]1Cc1nccs1` [Entry 231]: a half-maximal effect in series [1] (EC50) was put at 11 µM. Also, inhibition against HCMV NO protease was half-maximal at 2.7 µM (IC50). Also, in series [2], the CC50 was over 25 µM.
In the case of `CC[C@@H](NC(=O)N1C(=O)C[C@@H]1[C@@H](C)CC)c1ccccc1` [Entry 217], in series [1] (setting [3]), the EC50 is 85 µM. At HCMV NO protease, this compound gave an IC50 of 11 µM. Besides, the CC50 in series [2] was over 250 µM.
In turn, `CN(Cc1ccc(C(F)(F)F)cc1)C(=O)N1C(=O)C[C@@H]1Cc1ncoc1-c1ccccc1` [Entry 220] yielded a concentration for half-maximal inhibition (IC50) at HCMV NO protease of 14 µM.
Consider `CC[C@@H](NC(=O)N1C(=O)[C@@H](SC)[C@@H]1Cc1ccccc1)c1ccccc1` [Entry 209, 4(S)-Benzyl-3(S)-(methylthio)-2-oxoazetidine-1-carboxylic acid (1(R)-phenylpropyl)amide], for which the EC50 in series [1] (setting [3]) was determined as 27 µM. On HCMV NO protease, this compound had an IC50 of 4.7 µM. Moreover, the CC50 in series [2] is over 250 µM.
For `CN(Cc1ccc(C(F)(F)F)cc1)C(=O)N1C(=O)C[C@@H]1Cc1ccco1` [Entry 221] the same measures were 59 µM, 7.1 µM and over 100 µM.
Take `O=C1C[C@H](Cc2ccccc2)N1C(=O)NCc1ccccn1` [Entry 143]: the IC50 at HCMV NO protease was found to be 33 µM.
Same read-out and setting: the value for `O=C1C[C@H](Cc2ccccc2)N1C(=O)N1CCCC1` [Entry 303] was 63 µM; that for `CN(C)C(=O)N1C(=O)C[C@@H]1Cc1ccccc1` [Entry 113] was 50 µM; that for `CCC(CC)NC(=O)N1C(=O)C[C@@H]1Cc1ccccc1` [Entry 110] was 38 µM.
As for `C[C@@H]1C(=O)N(C(=O)NCc2ccncc2)[C@H]1Cc1ccccc1` [Entry 201], the EC50 in series [1] (setting [3]) was found to be 190 µM. The CC50 in series [2] was over 250 µM.
At HCMV NO protease, `O=C1C[C@H](Cc2ccccc2)N1C(=O)N1CCOCC1` [Entry 301] had an IC50 of 142 µM.
Take `CN(Cc1ccc([S+]([O-])C(F)(F)F)cc1)C(=O)N1C(=O)C[C@@H]1Cc1ccccc1` (stereo partly drawn) [Entry 138]: in series [1] (setting [3]), the EC50 was over 250 µM. In series [2], the CC50 is over 250 µM.
`O=C1C[C@H](Cc2ccccc2)N1C(=O)NC1CCc2ccccc21` (stereo partly drawn) [Entry 140] showed an IC50 against HCMV NO protease of 14 µM.
The same measure, in the same setting: the value for `O=C1C[C@H](Cc2ccccc2)N1C(=O)N1CCCc2ccccc21` [Entry 304] was 154 µM.
On the same count and under the same terms, the value for `CC(c1ccccc1)N(C)C(=O)N1C(=O)CC1Cc1ccccc1` (stereo not drawn) [Entry 120] was 17.7 µM.
Same read-out and setting: the value for `CC[C@@H](NC(=O)N1C(=O)C[C@H]1C(C)(C)C)c1ccccc1` [Entry 215, 4(S)-tert-Butyl-2-oxoazetidine-1-carboxylic acid (1(R)-phenylpropyl)amide] was 41 µM; that for `CN(Cc1ccc(N)cc1)C(=O)N1C(=O)C[C@@H]1Cc1ccccc1` [Entry 125] was 13.4 µM.
Usually kcat/KM stands for the second-order rate constant that governs catalysis at low substrate concentration. As to `CC(C)C[C@H](NC(=O)[C@H](CCCNC(=N)N)NC(=O)[C@H](CO)NC(=O)[C@H](CO)NC(=O)[C@H](C)NC(=O)[C@H](CC(N)=O)NC(=O)[C@@H](NC(=O)[C@@H](NC(=O)c1ccccc1N)C(C)C)C(C)C)C(=O)N[C@@H](Cc1ccc(O)c([N+](=O)[O-])c1)C(=O)N[C@@H](CCCNC(=N)N)C(=O)O` [reference compound] (H-[2Abz]VVNASSRL[Tyr(3-NO2)]R-OH), on HCMV NO protease (fluorogenic substrate of HCMV NO protease), the kcat/KM is 260 M⁻¹ s⁻¹.
As for `COc1ccc(CN(C)C(=O)N2C(=O)C[C@@H]2Cc2ccccc2)cc1` [Entry 130], the EC50 in series [1] (setting [3]) is 110 µM. Further, the CC50 in series [2] was over 250 µM.
Take `C[C@H](c1ccccc1)N(C)C(=O)N1C(=O)C[C@@H]1Cc1ccccc1` [Entry 119]: the IC50 on HCMV NO protease came out at 24 µM.
For `CCC(c1ccccc1)N(C)C(=O)N1C(=O)CC1Cc1ccccc1` (stereo not drawn) [Entry 123], half-maximal inhibition against HCMV NO protease (IC50) was put at 30 µM. The IC50 values of the last two compounds are within 1.5-fold of each other.
On to `CN(Cc1ccccc1)C(=O)N1C(=O)C[C@@H]1Cc1ccccc1` [Entry 112], for which, in series [1] (setting [3]), the EC50 came out at 150 µM. Besides, the CC50 in series [2] is over 150 µM.
`O=C1C[C@H](Cc2ccccc2)N1C(=O)Nc1ccccc1` [Entry 104]: the EC50 in series [1] (setting [3]) is over 250 µM. For the same compound, the CC50 in series [2] is over 250 µM.
At HCMV NO protease, `CN(CC(=O)OCc1ccccc1)C(=O)N1C(=O)C[C@@H]1Cc1ccccc1` [Entry 115] registered an IC50 of 11.7 µM.
Turning to `CO[C@@H]1C(=O)N(C(=O)NCc2ccncc2)[C@H]1Cc1ccccc1` [Entry 210, 4(S)-Benzyl-3(S)-methoxy-2-oxoazetidine-1-carboxylic acid (4-pyridinylmethyl)amide], the EC50 in series [1] (setting [3]) was found to be 210 µM. Besides, the CC50 in series [2] is over 250 µM.
Compound `CN(CCc1ccccc1)C(=O)N1C(=O)C[C@@H]1Cc1ccccc1` [Entry 114] came in with an IC50 at HCMV NO protease of 38 µM.
On the same count and under the same terms, the value for `CC(NC(=O)N1C(=O)CC1Cc1ccccc1)c1ccccc1` (stereo not drawn) [Entry 141] was 42 µM.

Source of the values: patent US6242439A, “Azetidinone derivatives for the treatment of HCMV infections” (Boehringer Ingelheim (Canada) Ltd., priority 1998, dated 2001).
